Experiment [1] addresses T1, 5-hydroxytryptamine receptor 1A (Homo sapiens, UniProt P08908).
T1 sequence (P08908 whole entry): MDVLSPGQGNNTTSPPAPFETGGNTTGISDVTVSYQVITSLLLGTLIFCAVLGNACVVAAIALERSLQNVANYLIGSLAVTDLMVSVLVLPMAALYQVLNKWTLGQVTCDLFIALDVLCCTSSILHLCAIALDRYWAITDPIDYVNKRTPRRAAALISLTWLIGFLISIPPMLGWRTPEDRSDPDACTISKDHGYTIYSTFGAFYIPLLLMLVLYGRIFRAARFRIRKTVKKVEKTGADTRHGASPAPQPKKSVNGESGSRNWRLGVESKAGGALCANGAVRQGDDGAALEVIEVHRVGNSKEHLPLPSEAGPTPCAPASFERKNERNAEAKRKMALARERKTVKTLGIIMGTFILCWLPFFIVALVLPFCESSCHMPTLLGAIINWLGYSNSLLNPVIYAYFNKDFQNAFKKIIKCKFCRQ
Put plainly: Displacement of [3H]-8-OH-DPAT from human 5-HT1A receptor expressed in HEK293 cell membranes after 1 hr by microbeta scintillation counting analysis. A general note: Displacement assays read how much labelled ligand stays bound in the presence of the test substance.

Experiment [2] addresses 5-hydroxytryptamine receptor 2A (Homo sapiens, UniProt P28223). Put plainly: Displacement of [3H]-Ketanserin from human 5-HT2A receptor expressed in CHO-K1 cell membranes after 1.5 hrs by microbeta scintillation counting analysis.
The species entered for experiment [3] is Homo sapiens. Put plainly: Selectivity index, ratio of Ki for human 5-HT6 receptor expressed in HEK293 cell membranes to Ki for human 5-HT7b receptor expressed in HEK293 cell membranes. The class given is cell-based.
The target in experiment [4] is 5-hydroxytryptamine receptor 6 (Homo sapiens, UniProt P50406). Nature of the experiment: Displacement of [3H]-LSD from human 5-HT6 receptor expressed in HEK293 cell membranes after 1 hr at 37 degC by microbeta scintillation counting analysis.
Sequence of 5-hydroxytryptamine receptor 6 (P50406 whole entry): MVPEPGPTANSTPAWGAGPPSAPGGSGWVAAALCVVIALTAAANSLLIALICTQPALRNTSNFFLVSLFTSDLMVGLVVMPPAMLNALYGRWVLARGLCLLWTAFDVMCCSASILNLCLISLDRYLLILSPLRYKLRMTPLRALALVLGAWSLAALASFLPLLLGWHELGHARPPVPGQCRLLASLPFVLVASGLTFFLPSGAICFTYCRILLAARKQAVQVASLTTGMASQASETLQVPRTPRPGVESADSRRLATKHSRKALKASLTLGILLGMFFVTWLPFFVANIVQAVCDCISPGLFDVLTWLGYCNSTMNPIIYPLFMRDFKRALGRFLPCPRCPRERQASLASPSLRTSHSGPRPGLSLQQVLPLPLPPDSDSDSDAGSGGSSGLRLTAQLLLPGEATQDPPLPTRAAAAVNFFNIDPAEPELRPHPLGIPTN
The target of experiment [5] is 5-hydroxytryptamine receptor 7 (Homo sapiens, UniProt P34969). Nature of the experiment: Displacement of [3H]-5-CT from human 5-HT7b receptor expressed in HEK293 cell membranes after 1 hr at 37 degC by microbeta scintillation counting analysis.
Sequence of 5-hydroxytryptamine receptor 7 (P34969 whole entry): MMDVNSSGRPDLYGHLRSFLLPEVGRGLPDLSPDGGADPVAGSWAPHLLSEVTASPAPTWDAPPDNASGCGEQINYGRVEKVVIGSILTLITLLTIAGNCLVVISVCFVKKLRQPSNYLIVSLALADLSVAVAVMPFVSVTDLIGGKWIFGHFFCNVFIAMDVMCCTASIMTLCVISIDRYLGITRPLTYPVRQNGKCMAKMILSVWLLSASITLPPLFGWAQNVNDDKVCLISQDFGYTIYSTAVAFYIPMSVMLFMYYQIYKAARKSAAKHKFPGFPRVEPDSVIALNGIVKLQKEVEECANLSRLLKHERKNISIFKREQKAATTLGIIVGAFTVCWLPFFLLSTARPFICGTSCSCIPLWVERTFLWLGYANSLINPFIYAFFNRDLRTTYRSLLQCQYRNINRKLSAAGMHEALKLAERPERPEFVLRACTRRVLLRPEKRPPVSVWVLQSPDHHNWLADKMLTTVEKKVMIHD
For experiment [6], the species on record is Homo sapiens. Nature of the experiment: Selectivity index, ratio of Ki for human 5-HT2A receptor expressed in CHO-K1 cell membranes to Ki for human 5-HT7b receptor expressed in HEK293 cell membranes. The class given is cell-based.
The species entered for experiment [7] is Homo sapiens. Nature of the experiment: Selectivity index, ratio of Ki for human 5-HT1A receptor expressed in HEK293 cell membranes to Ki for human 5-HT7b receptor expressed in HEK293 cell membranes. It is filed as cell-based.

Sequence of 5-hydroxytryptamine receptor 2A (P28223 whole entry): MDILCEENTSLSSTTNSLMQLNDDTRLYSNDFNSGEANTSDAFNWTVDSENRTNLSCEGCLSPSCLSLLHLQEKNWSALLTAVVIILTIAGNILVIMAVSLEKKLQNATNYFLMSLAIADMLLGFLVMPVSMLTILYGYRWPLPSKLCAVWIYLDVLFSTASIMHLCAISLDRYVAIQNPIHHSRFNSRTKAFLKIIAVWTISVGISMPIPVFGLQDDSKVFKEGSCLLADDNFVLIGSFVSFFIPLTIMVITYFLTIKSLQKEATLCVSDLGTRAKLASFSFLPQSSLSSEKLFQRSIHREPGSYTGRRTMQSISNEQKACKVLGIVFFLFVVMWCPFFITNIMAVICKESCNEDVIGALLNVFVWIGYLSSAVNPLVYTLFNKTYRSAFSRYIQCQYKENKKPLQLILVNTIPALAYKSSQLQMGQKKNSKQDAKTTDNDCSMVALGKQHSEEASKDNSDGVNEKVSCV

The term Ki denotes a dissociation constant, usually derived from enzyme kinetics or from competition with a known ligand. As for `O=C1Nc2ccccc2C12CCN(CCN1CCN(c3ccc(Cl)cc3)CC1)C2` (centres undefined), the Ki in experiment [1] worked out at 3.76 µM; in experiment [2] it was 0.068 µM; in experiment [4], 4.74 µM; in experiment [5] it was 0.029 µM. Besides, the Ratio Ki in the experiment listed under Homo sapiens [3] was determined as 163; in the experiment filed under Homo sapiens [6], 2.3; in the experiment filed under Homo sapiens [7], 130.
For the compound `O=C1Nc2ccccc2C12CCN(CCN1CCN(c3ccc(F)cc3)CC1)C2` (centres undefined), the Ki was 14.2 µM in experiment [1], 0.059 µM in experiment [2], 4.74 µM in experiment [4] and 0.021 µM in experiment [5]. The Ratio Ki in the experiment filed under Homo sapiens [3] amounted to 226; in the experiment filed under Homo sapiens [6], 2.8; in the experiment filed under Homo sapiens [7], 674.
Consider `O=C1Nc2ccccc2C12CCN(CCN1CC=C(c3ccc(F)cc3)CC1)C2` (centres undefined), for which the Ki came to 3.95 µM in experiment [1], 0.075 µM in experiment [2], 6.27 µM in experiment [4] and 0.043 µM in experiment [5]. The Ratio Ki amounted to 146 in the experiment filed under Homo sapiens [3], 1.7 in the experiment listed under Homo sapiens [6] and 91.8 in the experiment listed under Homo sapiens [7].
On to `O=C1Nc2ccccc2C12CCN(CCN1CCN(c3ccc(Cl)c(Cl)c3)CC1)C2` (centres undefined), for which the Ki in experiment [1] turned out to be 4.05 µM; in experiment [2] it was 0.27 µM; in experiment [4], 1.13 µM; in experiment [5], 0.038 µM. For the same compound, the Ratio Ki in the experiment listed under Homo sapiens [3] was found to be 29.8; in the experiment filed under Homo sapiens [6] it was 7.1; in the experiment filed under Homo sapiens [7] it was 107.
On to `O=C1Nc2ccccc2C12CCN(CCN1CCC(c3ccc(F)cc3)CC1)C2` (centres undefined), for which the Ki came out at 52 µM in experiment [1], 0.259 µM in experiment [2], 5.28 µM in experiment [4] and 0.275 µM in experiment [5]. In addition, the Ratio Ki in the experiment filed under Homo sapiens [3] was 19.2; in the experiment listed under Homo sapiens [6], 0.9; in the experiment listed under Homo sapiens [7] it was 189.
For `O=C(c1ccc(Cl)cc1)N1CCN(CCN2CCC3(C2)C(=O)Nc2ccccc23)CC1` (centres undefined), the Ki was 48.2 µM in experiment [1], 17.3 µM in experiment [2], 7.75 µM in experiment [4] and 0.529 µM in experiment [5]. Further, the Ratio Ki in the experiment listed under Homo sapiens [3] was found to be 14.6; in the experiment listed under Homo sapiens [6] it was 32.8; in the experiment filed under Homo sapiens [7], 91.2.
Turning to `O=C1Nc2ccccc2C12CCN(CCCN1CCN(c3ccc(Cl)cc3)CC1)C2` (centres undefined), the Ki in experiment [1] amounted to 2.89 µM; in experiment [2], 0.715 µM; in experiment [4] it was 5.56 µM; in experiment [5], 0.067 µM. Besides, the Ratio Ki in the experiment filed under Homo sapiens [3] was found to be 83; in the experiment listed under Homo sapiens [6], 10.7; in the experiment listed under Homo sapiens [7], 43.1.
With `O=C1Nc2ccccc2C12CCN(CCN1CCN(c3cccc(Cl)c3)CC1)C2` (centres undefined), the Ki in experiment [1] was determined as 2.69 µM; in experiment [2], 0.351 µM; in experiment [4], 2 µM; in experiment [5] it was 0.055 µM. The Ratio Ki in the experiment listed under Homo sapiens [3] is 36.5; in the experiment filed under Homo sapiens [6], 6.4; in the experiment filed under Homo sapiens [7], 48.9.
Regarding `O=C1Nc2ccccc2C12CCN(CCN1CCN(c3ccccc3)CC1)C2` (centres undefined), the Ki in experiment [1] came out at 6 µM; in experiment [2], 0.496 µM; in experiment [4] it was 6.56 µM; in experiment [5], 0.1 µM. Moreover, the figures for the Ratio Ki in the experiment filed under Homo sapiens [3], in the experiment listed under Homo sapiens [6] and in the experiment listed under Homo sapiens [7] were 65.6, 5 and 60.1, respectively.
`O=C1Nc2ccccc2C12CCN(CCN1CCC(c3ccc(Cl)cc3)CC1)C2` (centres undefined): the Ki in experiment [1] was determined as 14.9 µM; in experiment [2], 0.404 µM; in experiment [4], 4.58 µM; in experiment [5], 0.284 µM. The Ratio Ki in the experiment listed under Homo sapiens [3] stood at 16.1; in the experiment filed under Homo sapiens [6], 1.4; in the experiment listed under Homo sapiens [7], 52.5.
Turning to `O=C1Nc2ccccc2C12CCN(CCN1CCN(c3ccccc3Cl)CC1)C2` (centres undefined), the Ki turned out to be 1.1 µM in experiment [1], 0.452 µM in experiment [2], 2.84 µM in experiment [4] and 0.245 µM in experiment [5]. Moreover, the Ratio Ki in the experiment filed under Homo sapiens [3] was 11.6; in the experiment filed under Homo sapiens [6] it was 1.8; in the experiment listed under Homo sapiens [7], 4.5.
On to `O=C1Nc2ccccc2C12CCN(CCN1CCC(Oc3ccc(Cl)cc3)CC1)C2` (centres undefined), for which the Ki in experiment [1] was found to be 13.8 µM; in experiment [2] it was 0.343 µM; in experiment [4], 1.69 µM; in experiment [5], 0.121 µM. Also, the Ratio Ki in the experiment listed under Homo sapiens [3] came to 14; in the experiment listed under Homo sapiens [6], 2.8; in the experiment listed under Homo sapiens [7], 114.

The record behind these values is ChEMBL document CHEMBL4190399, “Spiro[pyrrolidine-3,3'-oxindoles] as 5-HT7 receptor ligands” (Bioorg Med Chem Lett, 2018).
